“And” between values parts separate entries of the source, which are not always exact repeats. Equal values may be shown once.
Tests used:
B. theta Δ1760 strain = experiment: Growth of Δ1760 (surface endo-levanase deletion) strain on levans from different sources; type: cell-based, Bacteroides thetaiotaomicron; conditions: minimal media, anaerobic, 37 °C, replicates 1-3, single wells
Protocol: Growth curves were performed in an Epoch microplate spectrometer (Biotek Instruments Ltd) with 96-well Costar culture plate (Sigma-Aldrich) inside an anaerobic cabinet at 37 °C (Don Whitley Scientific, A35 workstation). Media were inoculated 1:10 with bacterial cultures previously grown overnight in BHI. Final culture volumes of 200 µl were used, and each condition was performed in triplicate. Optical density at 600 nm was measured in each well at 30 min intervals.
In most cases, the levan used was from Erwinia herbicola (Sigma). For analysis of the growth of the Δ1760 strain, bacterial levans from Bacillus sp. (Montana Polysaccharides) and Zymomonas mobilis[64] (a kind gift from Prof. Dr. Yekta Göksunger, Ege University, Izmir, Turkey) were also used, as well as levan from Timothy grass (Megazyme) and in vitro synthesised levan. In vitro synthesised levan was made using Bacillus subtilis levansucrase incubated with 20% sucrose in PBS for 24 h at 37 °C. Proteinase K (100 µg/ml) was then added to remove the protein, before being precipitated out using 0.5% trichloroacetic acid final. The levan was then extensively dialysed against water and freeze dried.

[1] = molecular target: T1, Bt1763 (SusC) TonB-dependent transporter of the Bacteroides thetaiotaomicron levan utilisation locus (Bacteroides thetaiotaomicron, UniProt Q8A6W3 26-1041); experiment: crystal structure; Bt1762-63 purified from B. theta outer membranes, in 0.4% C8E4; apo and with 2.5 mM β2,6 FOS; 0.15 M sodium formate, 0.1 M HEPES pH 7-7.5, 16-20% PEG 3350; conditions: both partners purified
T1 construct: Bt1763 (SusC), TonB-dependent transporter of the levan PUL, Bacteroides thetaiotaomicron VPI-5482; numbers count on: the mature protein; In closed states seen by cryo-EM the plug domain has no density; source: endogenous, B. thetaiotaomicron VPI-5482 (Bt1762-his strain) grown on MM fructose; outer membrane extracted with LDAO; purified with His-tagged Bt1762 (IMAC, SEC)
T1 sequence (looked up): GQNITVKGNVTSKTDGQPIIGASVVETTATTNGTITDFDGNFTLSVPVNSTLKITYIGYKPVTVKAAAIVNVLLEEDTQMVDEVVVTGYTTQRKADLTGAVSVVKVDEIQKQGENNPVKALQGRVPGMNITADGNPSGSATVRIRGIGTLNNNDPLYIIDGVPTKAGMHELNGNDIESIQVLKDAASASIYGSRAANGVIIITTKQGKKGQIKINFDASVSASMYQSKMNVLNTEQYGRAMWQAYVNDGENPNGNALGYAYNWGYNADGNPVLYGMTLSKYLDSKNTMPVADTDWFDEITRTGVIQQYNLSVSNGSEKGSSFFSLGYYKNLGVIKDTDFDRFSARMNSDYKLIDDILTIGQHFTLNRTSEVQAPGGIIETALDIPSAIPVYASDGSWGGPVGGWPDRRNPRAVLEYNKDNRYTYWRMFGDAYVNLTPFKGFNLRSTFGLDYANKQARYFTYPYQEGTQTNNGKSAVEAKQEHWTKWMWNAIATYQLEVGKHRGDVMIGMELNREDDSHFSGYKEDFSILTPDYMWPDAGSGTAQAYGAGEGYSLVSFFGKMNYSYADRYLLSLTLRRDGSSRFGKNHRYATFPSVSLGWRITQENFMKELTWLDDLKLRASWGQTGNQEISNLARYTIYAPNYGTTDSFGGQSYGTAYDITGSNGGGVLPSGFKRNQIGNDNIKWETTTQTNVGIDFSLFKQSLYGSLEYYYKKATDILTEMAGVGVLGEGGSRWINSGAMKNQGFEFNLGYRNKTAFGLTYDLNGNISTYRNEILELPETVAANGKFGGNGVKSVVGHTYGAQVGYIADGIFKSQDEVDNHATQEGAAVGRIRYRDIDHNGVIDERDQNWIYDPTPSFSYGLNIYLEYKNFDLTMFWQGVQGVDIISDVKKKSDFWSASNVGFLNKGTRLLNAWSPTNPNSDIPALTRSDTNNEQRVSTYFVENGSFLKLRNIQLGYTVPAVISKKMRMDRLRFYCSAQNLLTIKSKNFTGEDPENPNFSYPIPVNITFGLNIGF

[2] = molecular target: the molecule itself; experiment: as above

Molecule: O=C(CO)C(O)C(O)C(O)CO (centres unmarked) [Frc]
- Optical density at 600 nm (B. theta Δ1760 strain; time 00:00:00, carbon source 0.5 %): 0.303 and 0.324 and 0.321 and 0.418 and 0.289 and 0.311 and 0.334 and 0.296 and 0.325
- Optical density at 600 nm (B. theta Δ1760 strain; time 00:30:00, carbon source 0.5 %): 0.171 (2×) and 0.174 (2×) and 0.172 (2×) and 0.177 and 0.173 and 0.181
- Optical density at 600 nm (B. theta Δ1760 strain; time 01:00:00, carbon source 0.5 %): 0.178 (2×) and 0.179 (2×) and 0.177 (2×) and 0.18 (2×) and 0.182
- Optical density at 600 nm (B. theta Δ1760 strain; time 01:30:00, carbon source 0.5 %): 0.186 and 0.189 (2×) and 0.187 (2×) and 0.188 (2×) and 0.184 and 0.19
- Optical density at 600 nm (B. theta Δ1760 strain; time 02:00:00, carbon source 0.5 %): 0.194 and 0.197 and 0.196 (2×) and 0.199 (2×) and 0.191 and 0.202 and 0.198
- Optical density at 600 nm (B. theta Δ1760 strain; time 02:30:00, carbon source 0.5 %): 0.203 and 0.21 and 0.212 and 0.211 and 0.198 and 0.204 and 0.215 and 0.206 and 0.214
- Optical density at 600 nm (B. theta Δ1760 strain; time 03:00:00, carbon source 0.5 %): 0.211 and 0.217 and 0.232 and 0.225 and 0.205 and 0.212 and 0.229 and 0.214 and 0.226
- Optical density at 600 nm (B. theta Δ1760 strain; time 03:30:00, carbon source 0.5 %): 0.22 and 0.224 (2×) and 0.261 and 0.24 (2×) and 0.214 and 0.221 and 0.255
- Optical density at 600 nm (B. theta Δ1760 strain; time 04:00:00, carbon source 0.5 %): 0.228 and 0.23 (2×) and 0.304 and 0.261 (2×) and 0.22 and 0.234 and 0.284
- Optical density at 600 nm (B. theta Δ1760 strain; time 04:30:00, carbon source 0.5 %): 0.233 and 0.24 and 0.355 and 0.279 and 0.223 and 0.252 and 0.313 and 0.238 and 0.283
- Optical density at 600 nm (B. theta Δ1760 strain; time 05:00:00, carbon source 0.5 %): 0.238 and 0.259 and 0.442 and 0.309 and 0.227 and 0.278 and 0.351 and 0.243 and 0.306
- Optical density at 600 nm (B. theta Δ1760 strain; time 05:30:00, carbon source 0.5 %): 0.249

B1: Bt1762 (SusD) of the Bacteroides thetaiotaomicron levan utilisation locus, with C-terminal His6 tag (natural protein, UniProt Q8A6W4 19-570, looked up)
chain: CDDFLDRQVPQGIVTGDQIASPEYVDNLVISAYAIWATGDDINSSFSLWNYDVRSDDCYKGGSGTEDGGVFNALEISKGINTTDWNINDIWKRLYQCITRANTALQSLDQMDEKTYPLKNQRIAEMRFLRGHAHFMLKQLFKKIVIVNDENMEPDAYNELSNTTYTNDEQWQKIADDFQFAYDNLPEVQIEKGRPAQAAAAAYLAKTYLYKAYRQDGADNALTGINEEDLKQVVKYTDPLIMAKGGYGLETDYSMNFLPQYENGAESVWAIQYSINDGTYNGNLNWGMGLTTPQILGCCDFHKPSQNLVNAFKTDSQGKPLFSTYDNENYEVATDNVDPRLFHTVGMPGFPYKYNEGYIIQKNDDWSRSKGLYGYYVSLKENVDPDCDCLKKGSYWASSLNHIVIRYADVLLMRAEALIQLNDGRITDAISLINEVRSRAAGSTMLIFNYKEDYGVNFKVTPYDLKAYAQDEAMKMLKWERRVEFGMESSRFFDLVRWGEAKDVINAYYVTEASRCSIYKNAGFTENKNEYLPVPFEQISASNGNYTQNFGW
modifications: lipid anchor (lipoprotein)
notes: numbers count on: the mature protein; His6 tag is chromosomal; also called SusD lid; WT (Bt1762-his strain); source: B. thetaiotaomicron VPI-5482 (Bt1762-his strain) grown on MM fructose; outer membrane extracted with LDAO; purified with Bt1763 (IMAC, SEC); not shown: His6, C-terminal, kept
- binding result [1]: binds

B2: Bt1762-Bt1763 SusCD complex (complex, Bacteroides thetaiotaomicron)
chain 1: CDDFLDRQVPQGIVTGDQIASPEYVDNLVISAYAIWATGDDINSSFSLWNYDVRSDDCYKGGSGTEDGGVFNALEISKGINTTDWNINDIWKRLYQCITRANTALQSLDQMDEKTYPLKNQRIAEMRFLRGHAHFMLKQLFKKIVIVNDENMEPDAYNELSNTTYTNDEQWQKIADDFQFAYDNLPEVQIEKGRPAQAAAAAYLAKTYLYKAYRQDGADNALTGINEEDLKQVVKYTDPLIMAKGGYGLETDYSMNFLPQYENGAESVWAIQYSINDGTYNGNLNWGMGLTTPQILGCCDFHKPSQNLVNAFKTDSQGKPLFSTYDNENYEVATDNVDPRLFHTVGMPGFPYKYNEGYIIQKNDDWSRSKGLYGYYVSLKENVDPDCDCLKKGSYWASSLNHIVIRYADVLLMRAEALIQLNDGRITDAISLINEVRSRAAGSTMLIFNYKEDYGVNFKVTPYDLKAYAQDEAMKMLKWERRVEFGMESSRFFDLVRWGEAKDVINAYYVTEASRCSIYKNAGFTENKNEYLPVPFEQISASNGNYTQNFGW
chain 2: GQNITVKGNVTSKTDGQPIIGASVVETTATTNGTITDFDGNFTLSVPVNSTLKITYIGYKPVTVKAAAIVNVLLEEDTQMVDEVVVTGYTTQRKADLTGAVSVVKVDEIQKQGENNPVKALQGRVPGMNITADGNPSGSATVRIRGIGTLNNNDPLYIIDGVPTKAGMHELNGNDIESIQVLKDAASASIYGSRAANGVIIITTKQGKKGQIKINFDASVSASMYQSKMNVLNTEQYGRAMWQAYVNDGENPNGNALGYAYNWGYNADGNPVLYGMTLSKYLDSKNTMPVADTDWFDEITRTGVIQQYNLSVSNGSEKGSSFFSLGYYKNLGVIKDTDFDRFSARMNSDYKLIDDILTIGQHFTLNRTSEVQAPGGIIETALDIPSAIPVYASDGSWGGPVGGWPDRRNPRAVLEYNKDNRYTYWRMFGDAYVNLTPFKGFNLRSTFGLDYANKQARYFTYPYQEGTQTNNGKSAVEAKQEHWTKWMWNAIATYQLEVGKHRGDVMIGMELNREDDSHFSGYKEDFSILTPDYMWPDAGSGTAQAYGAGEGYSLVSFFGKMNYSYADRYLLSLTLRRDGSSRFGKNHRYATFPSVSLGWRITQENFMKELTWLDDLKLRASWGQTGNQEISNLARYTIYAPNYGTTDSFGGQSYGTAYDITGSNGGGVLPSGFKRNQIGNDNIKWETTTQTNVGIDFSLFKQSLYGSLEYYYKKATDILTEMAGVGVLGEGGSRWINSGAMKNQGFEFNLGYRNKTAFGLTYDLNGNISTYRNEILELPETVAANGKFGGNGVKSVVGHTYGAQVGYIADGIFKSQDEVDNHATQEGAAVGRIRYRDIDHNGVIDERDQNWIYDPTPSFSYGLNIYLEYKNFDLTMFWQGVQGVDIISDVKKKSDFWSASNVGFLNKGTRLLNAWSPTNPNSDIPALTRSDTNNEQRVSTYFVENGSFLKLRNIQLGYTVPAVISKKMRMDRLRFYCSAQNLLTIKSKNFTGEDPENPNFSYPIPVNITFGLNIGF
modifications: lipid anchor (lipoprotein)
notes: Bt1762 (SusD), Bacteroides thetaiotaomicron VPI-5482; as m1; numbers count on: the mature protein; Bt1763 (SusC), Bacteroides thetaiotaomicron VPI-5482; as m2; One SusCD unit (one Bt1762, one Bt1763); two such units form the SusC2D2 dimer; also called Bt1762-63; BT1762-63; source: B. thetaiotaomicron VPI-5482 (Bt1762-his strain) grown on MM fructose; outer membrane extracted with LDAO; purified …
- stoichiometry N [2]: 2

From publication PMC7782687, “Insights into SusCD-mediated glycan import by a prominent gut symbiont” (Nature Communications, 2021)
